From patent US6256527A, “Method for determining oxygen concentration” (Nycomed Imaging AS, priority 1995, dated 2001) come the findings set out here.

Format in all cases: physicochemical
Data set [1] in a line: ESR linewidth of trityl radicals (synthesis examples). The settings on record: 200 G, singlet.
A short description of data set [2]: Overhauser enhancement of trityl radicals (synthesis examples).
Data set [3] is described as follows: Stability measurements: half life without exclusion of air.
The nature of data set [4]: DNP (Overhauser) enhancement and DNP-curve relaxivity at infinite concentration and power. The conditions noted are these: water. The text has this: The calibration data are generated by determining Overhauser enhancement values for the radical in the selected body fluid, at the selected temperature and at a range of oxygen (and preferably also radical) concentrations. The intrinsic esr relaxation times for the radical can be determined, under the same conditions, using a conventional esr spectrometer equipped with a temperature controller, with oxygen concentration being determined using the method of Ravin et al J. Appl. Physiol. 18:784-790(1964), a method known to produce accurate and reproducible results.
(§1) The following four water soluble, single ESR line trityls were investigated by NMRD, Dynamic Nuclear Polarisation (DNP) and ESR (Examples 1-4).
(§2) The relaxivity and DNP enhancement data were measured in water, plasma and blood at 23° C. and 37° C. The results are set out in Tables 1 and 2.

Data set [5] can be described thus: Oximetric calibration by X-band ESR (9 GHz), oxygen broadening. The conditions noted are these: plasma, 37° C., X-band 9 GHz. The procedure: Oximetric calibrations were made for the perdeuterated trityl and the non-deuterated hydroxy trityl in water and plasma at 37° C. with ESR in the X-band at 9 GHz. The experiment was performed on a Varian X-band spectrometer with temperature controller. A thermocouple was placed near the microwave cavity for accurate determination of the temperature. The samples were placed in thin wall teflon capillaries for rapid equilibration with a flowing gas mixture. A Sensormedics Oxygen Analyzer OM-11 was used to determine the oxygen percentage in the flowing gas. The gas pressure for temperature control and oxygenation was maintained at 20 psi. The linewidth and the saturation of the electron spin resonance was measured. Fremys salt was chosen as a B1 calibration standard and a conversion factor of 38.6±0.2 mG/mW was obtained.
The results are shown in FIGS. 2 and 3 which give the linewidth as a function of oxygen concentration. The oxygen broadening of the perdeuterated trityl in plasma at 37° C. is 583 mG/mMo2 .

A short description of data set [6]: Electron spin relaxation rates (radical concentration dependent) from CW ESR spectra and DNP data. The settings on record: water (isotonic saline). How it is done: as §1
Electron spin relaxation rates were measured by analysis of CW ESR spectra and DNP data at 23° C. and 37° C. in water, isotonic saline, plasma and blood for the deuterated hydroxy trityl and in water and isotonic saline for the perdeuterated and symmetric trityl.

Data set [7] in a line: Relaxivity from NMRD profiles in water, plasma and blood. The settings on record: water. The procedure:
as §1, §2

Take “Bis(8-carboxy-2,2,6,6-tetra(hydroxymethyl)benzo[2-d: 4,5-d']bis(1,3)dithiol-4-yl)-mono(8-carboxy-2,2,6,6-tetramethylbenzo[2-d: 4,5-d']-bis(1,3)dioxol-4-yl)) methyl sodium salt [Example 27]”: in data set [1] (3.4 mM in H2 O), the ESR Line width was determined as 120 mg. For the same substance, the Overhauser enhancement in data set [2] (3.4 mM in H2 O, 5 W microwave power) was 164. Besides, the Half life in data set [3] (in water without exclusion of air) stood at 5 days.
“Bis-(8-ethoxycarbonyl-2,2,6,6-tetramethylbenzo[1,2-d: 4,5-d']-bis(1,3)dithiole-4-yl)-mono-(8-ethoxycarbonyl-2,2,6,6-tetramethylbenzo[1,2-d:4,5-d']-bis(1,3)dioxol-4-yl)methyl [Example 19]”: the ESR Line width in data set [1] (THF) is 325 mg. The Overhauser enhancement in data set [2] (THF, 2.1 mM, 4 W microwave power) is on record as 156. Besides, the Half life in data set [3] (in acetonitrile without exclusion of air) came to 83.33 days.
For the substance “Bis-(8-sodium carboxylate-2,2,6,6-tetrakis-(^2 H3 methyl)-benzo[1,2-d:4,5-d']-bis(1,3)-dithiole-4-yl)-mono-(8-sodium carboxylate-2,2,6,6-tetrakis-(^2 H3 -methyl)-benzo[1,2-d:4,5-d']-bis(1,3)-dioxole-4-yl) methyl [perdeuterated trityl]”, the “A. (enhancement at infinite concentration and power)” value in data set [4] turned out to be 267. Further, in data set [5], the oxygen broadening is 583 mG/mMo2. For the same substance, the figures for the “2(3γe T1e)^-1, concentration dependent relaxation rate (peak-to-peak)” value in data set [6] (23° C.) and in data set [6] (37° C.) were 10.6 ± 0.8 mg/mM and 12.9 ± 0.3 mg/mM, respectively. For the same substance, the “2(3γe T2e)^-1, concentration dependent relaxation rate (peak-to-peak)” value in data set [6] (23° C.) was found to be 24.3 ± 0.8 mg/mM; in data set [6] (37° C.) it was 28.2 ± 1.2 mg/mM. For the same substance, the Relaxivity turned out to be 0.19 mM⁻¹ s⁻¹ in data set [7] (23° C.) and 0.14 mM⁻¹ s⁻¹ in data set [7] (37° C.).
